Source: patent EP1247803A2, “Indolinone compounds suitable for modulation of protein kinases” (Sugen, Inc., priority 1996, dated 1998)

Assays:
[1] = target: PDGF-R (Homo sapiens, UniProt P09619); test: PDGF-R ELISA; type: cell-based
Excerpt: A PDGF-R ELISA is described in International Patent Publication No. WO 96/40116, published December 19, 1996 by Tang et al.

[2] = target: T1, EGFR (Homo sapiens, UniProt P00533); test: EGFR ELISA assay (in vitro kinase activity, EGFR captured from A431 cell lysate); type: biochemical; parameters: concentration or dose not given beside the values
T1 construct: Add 7 ug A431 cell lysate per well (EGFR source); endogenous in cells; host or cells: A431
Method in brief: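 EGFR from A431 lysate was captured on plates coated with anti-EGFR antibody. Compounds were added 30 min before a 5 min phosphorylation with 3 µM ATP/5 mM MnCl2, which was stopped with 20 mM EDTA. Phosphotyrosine was detected with rabbit anti-phosphotyrosine, then a peroxidase-conjugated secondary and ABTS/H2O2, read at 410 nm.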

[3] = tested on: MET; test: MET biochemical kinase assay; parameters: species or system human; concentration or dose not given beside the values
Method in brief: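 Immunocaptured MET autophosphorylation, read colorimetrically (TMB) via HRP anti-phosphotyrosine antibody. Kinase reaction initiated with buffer containing ATP and divalent metals after compound addition to plate-bound receptor from lysates.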

Chain of PDGF-R (P09619 33-1106, species assumed): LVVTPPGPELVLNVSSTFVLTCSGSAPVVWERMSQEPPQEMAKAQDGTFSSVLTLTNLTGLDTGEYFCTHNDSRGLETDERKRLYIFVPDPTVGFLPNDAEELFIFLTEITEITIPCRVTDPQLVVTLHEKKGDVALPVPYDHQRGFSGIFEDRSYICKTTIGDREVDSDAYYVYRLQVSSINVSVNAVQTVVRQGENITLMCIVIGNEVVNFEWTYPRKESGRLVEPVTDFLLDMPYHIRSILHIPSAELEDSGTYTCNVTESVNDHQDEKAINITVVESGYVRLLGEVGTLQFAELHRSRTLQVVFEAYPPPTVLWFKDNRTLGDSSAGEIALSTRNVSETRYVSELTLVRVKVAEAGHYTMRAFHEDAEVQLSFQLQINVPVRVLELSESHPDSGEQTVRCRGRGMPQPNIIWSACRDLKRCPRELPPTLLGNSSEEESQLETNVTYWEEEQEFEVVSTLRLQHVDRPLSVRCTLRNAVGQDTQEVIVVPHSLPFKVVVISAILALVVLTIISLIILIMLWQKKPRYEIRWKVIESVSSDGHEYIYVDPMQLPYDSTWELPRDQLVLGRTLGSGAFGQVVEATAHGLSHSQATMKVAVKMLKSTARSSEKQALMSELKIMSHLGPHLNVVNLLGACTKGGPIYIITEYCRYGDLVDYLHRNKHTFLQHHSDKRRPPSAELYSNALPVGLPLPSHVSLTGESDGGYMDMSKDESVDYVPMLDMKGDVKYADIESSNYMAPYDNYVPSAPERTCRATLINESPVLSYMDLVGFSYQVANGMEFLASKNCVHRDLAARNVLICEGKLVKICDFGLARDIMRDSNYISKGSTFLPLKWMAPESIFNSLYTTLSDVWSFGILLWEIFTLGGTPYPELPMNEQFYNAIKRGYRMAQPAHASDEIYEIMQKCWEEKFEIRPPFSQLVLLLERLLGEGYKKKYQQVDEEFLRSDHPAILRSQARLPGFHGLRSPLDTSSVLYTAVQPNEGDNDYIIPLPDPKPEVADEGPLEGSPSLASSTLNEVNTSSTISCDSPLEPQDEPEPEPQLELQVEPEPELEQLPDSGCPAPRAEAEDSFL
T1 sequence (P00533 25-1210): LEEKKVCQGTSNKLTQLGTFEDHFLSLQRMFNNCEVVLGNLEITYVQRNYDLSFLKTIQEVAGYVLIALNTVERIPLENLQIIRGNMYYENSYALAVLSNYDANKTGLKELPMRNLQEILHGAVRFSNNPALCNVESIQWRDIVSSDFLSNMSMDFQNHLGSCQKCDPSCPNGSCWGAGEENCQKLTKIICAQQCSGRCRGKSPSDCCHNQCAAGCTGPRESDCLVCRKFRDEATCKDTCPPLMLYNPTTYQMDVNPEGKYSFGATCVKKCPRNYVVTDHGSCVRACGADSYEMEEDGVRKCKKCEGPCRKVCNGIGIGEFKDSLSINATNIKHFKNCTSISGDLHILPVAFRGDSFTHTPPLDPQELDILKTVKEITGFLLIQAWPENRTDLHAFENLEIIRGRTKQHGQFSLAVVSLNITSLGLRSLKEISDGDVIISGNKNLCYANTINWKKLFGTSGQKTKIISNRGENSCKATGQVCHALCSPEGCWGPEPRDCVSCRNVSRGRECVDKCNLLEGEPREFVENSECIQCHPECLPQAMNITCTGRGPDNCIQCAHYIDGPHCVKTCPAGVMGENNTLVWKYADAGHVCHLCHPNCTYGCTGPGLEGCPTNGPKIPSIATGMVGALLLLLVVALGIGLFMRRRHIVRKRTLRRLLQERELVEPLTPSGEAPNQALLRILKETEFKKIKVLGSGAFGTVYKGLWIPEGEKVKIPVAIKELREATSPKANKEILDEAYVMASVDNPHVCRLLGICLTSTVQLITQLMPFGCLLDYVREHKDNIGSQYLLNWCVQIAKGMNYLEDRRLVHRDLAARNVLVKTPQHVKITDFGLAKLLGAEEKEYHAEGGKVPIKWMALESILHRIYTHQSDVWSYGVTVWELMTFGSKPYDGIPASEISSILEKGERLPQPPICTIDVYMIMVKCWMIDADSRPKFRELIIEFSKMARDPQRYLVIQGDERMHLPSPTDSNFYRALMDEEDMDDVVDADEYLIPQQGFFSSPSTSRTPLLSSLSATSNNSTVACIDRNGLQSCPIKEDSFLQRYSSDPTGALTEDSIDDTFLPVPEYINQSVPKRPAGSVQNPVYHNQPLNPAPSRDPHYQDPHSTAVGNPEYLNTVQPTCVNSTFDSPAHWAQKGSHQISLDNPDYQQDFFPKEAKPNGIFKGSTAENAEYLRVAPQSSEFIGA

Compound	PDGF Kinase %Inhibition [1] [%]	Biochem EGFR %Inhibition [2] [%]	Met Kinase % Inhibition [3] [%]
O=C1Nc2ccc(CCCl)cc2C1=Cc1ccc([N+](=O)[O-])s1 [10722/G04]	11.7	-13.3	63.2
CCCCN(CCCC)c1ccc(C=C2C(=O)Nc3ccc(CCCl)cc32)cc1 [10722/G10]	16.9	3.3	27.0
Cc1c(Br)ccc2c1C(=Cc1cc(C(C)(C)C)cc(C(C)(C)C)c1O)C(=O)N2 [10723/C11]	8.9	-1.1	47.0
CC(=O)Oc1ccc(C=C2C(=O)Nc3ccc(Br)c(C)c32)cc1OC(C)=O [10723/C05]	22.8	35.2	73.1
CNS(=O)(=O)c1ccc2c(c1)C(=Cc1cc(C(C)(C)C)cc(C(C)(C)C)c1O)C(=O)N2 [10723/D11]	24.9	-6.2	42.0
Cc1cc(C=C2C(=O)Nc3ccc(Br)c(C)c32)ccc1O [10723/C06]	26.3	-4.5	63.4
CNS(=O)(=O)c1ccc2c(c1)C(=Cc1cccc(Br)c1)C(=O)N2 [10723/D10]	21.4	-9.3	38.1
O=C1Nc2ccc(I)cc2C1=Cc1cccc(Br)c1 [10723/B10]	17.2	1.8	88.5
CC(C)(C)c1cc(C=C2C(=O)Nc3ccc(S(=O)(=O)Nc4ccc(C(F)(F)F)cc4)cc32)c(O)c(C(C)(C)C)c1 [10723/E11]	32.5	-44.6	50.1
O=C1Nc2ccc(CCCl)cc2C1=Cc1ccc(F)cc1F [10722/G06]	-6.0	-5.2	12.2
Cc1c(Br)ccc2c1C(=Cc1cc(O)c(O)c(Br)c1)C(=O)N2 [10723/C04]	36.7	23.5	91.9
Cc1cc(C=C2C(=O)Nc3ccc(I)cc32)ccc1O [10723/B06]	58.8	11.9	90.6
CNS(=O)(=O)c1ccc2c(c1)C(=Cc1ccc(O)c(O)c1O)C(=O)N2 [10723/D02]	22.1	63.2	93.0
CC(=O)Oc1ccc(C=C2C(=O)Nc3c(Br)cc(Br)cc32)cc1OC(C)=O [10723/A05]	17.9	26.4	75.7
O=C1Nc2ccc(CCCl)cc2C1=Cc1ccc(O)cc1O [10723/G08]	7.5	0.1	79.9
CC(=O)Oc1ccc(C=C2C(=O)Nc3ccc(CCCl)cc32)cc1OC(C)=O [10723/G05]	2.0	1.3	79.9
O=C1Nc2ccc(I)cc2C1=Cc1ccc(O)cc1O [10723/B08]	56.1	-0.4	82.8
COc1ccc(C=C2C(=O)Nc3c(Br)cc(Br)cc32)c(O)c1 [10723/A09]	42.9	-4.5	85.9
O=C1Nc2ccc(CCCl)cc2C1=Cc1cc(O)c(O)c(Br)c1 [10723/G04]	21.4	16.7	85.9
CNS(=O)(=O)c1ccc2c(c1)C(=Cc1ccccc1Br)C(=O)N2 [10723/D07]	16.6	13.4	21.9
